Laboratory results published in patent EP0240392A1, “Compounds of the cyclophosphazene type, process for their preparation and pharmaceutical preparation containing them” (CENTRE NATIONAL DE LA RECHERCHE SCIENTIFIQUE (CNRS), priority 1986, dated 1987).
Marks after values point to notes of the source that are not given here.

Key:
[1] = tested on: LEUCEMIE P388 INTRACEREBRALE; experiment: Antitumour activity on intracerebral P388 leukemia in mice; type: in vivo, souris CD2F1; settings: Tableau 2, inoculation i.c.
Description: (§1) Les tests d'activité antitumorale ont été conduits au sein du Screening and Pharmacology Group de l'E.O.R.T.C., implanté à l'Institut Mario Negri de Milan.
(§2) Ces essais ont été conduits soit en mono-injection à différentes doses au jour J+1 suivant la greffe de la tumeur, soit en poly-injections chroniques Q1D, soit en protocoles Q4D.
(§3) L'activité antitumorale est mesurée par le rapport T/C %, T (en jours) étant le durée moyenne de vie des souris traitées, C (en jours) étant la durée moyenne de vie des souris témoins.
(§4) L'effet thérapeutique est considéré comme significatif quant T/C % est supérieur ou égal à 125.

[2] = tested on: CARCINOME MAMMAIRE LIGNEE 16; experiment: Antitumour activity on mammary carcinoma line 16 implanted i.m. in mice; type: in vivo, souris 3CH
Description: as §1, §2, §3, §4

[3] = tested on: RETICULO SARCOME M5076 MURIN; experiment: Antitumour activity on murine M5076 reticulum sarcoma implanted i.m. in mice; type: in vivo, souris C57Bl/6; settings: for Poids corporel (g±S.E.) / Poids de la rate (mg±S.E.) / Poids de la tumeur (g±S.E.) / Poids du foie (g±S.E.): jour 23; for nombre de souris vivantes/total: Tableau 5
Description: as §1, §2

LEUCEMIE P388 = experiment: Antitumour activity on P388 leukemia implanted i.p. in mice; type: in vivo, souris CD2F1
Description: as §1, §2, §3, §4

[4] = 200 mg/kg i.p. j 1,5,9, jour 26
[5] = 300 mg/kg i.p. j 1,5,9, jour 26
[6] = 100 mg/kg i.p. x j 1-9, jour 21
[7] = 150 mg/kg i.p. x j 1,5,9, jour 14
[8] = 150 mg/kg i.p. x j 1,5,9, jour 21
[9] = 150 mg/kg i.p. x j 1-9, jour 21
[10] = 200 mg/kg i.p. x j 1,5,9, jour 14
[11] = 200 mg/kg i.p. x j 1,5,9, jour 21
[12] = 250 mg/kg i.p. x j 1,5,9, jour 14
[13] = 250 mg/kg i.p. x j 1,5,9, jour 21
[14] = 300 mg/kg i.p. x j 1,5,9, jour 21

SMILES: C(CCN1CCCNP12=NP(N1CC1)(N1CC1)=NP(N1CC1)(N1CC1)=N2)CN1CCCNP12=NP(N1CC1)(N1CC1)=NP(N1CC1)(N1CC1)=N2 (centres unmarked) [SPM]
- T/C (%) ([1]; 100 mg/kg i.p. x 9 (j 1 à 9)): 141%
- T/C (%) ([1]; 150 mg/kg i.p. x 9 (j 1 à 9)): 123%
- T/C (%) ([1]; 200 mg/kg i.p. x 9 (j 1 à 9)): 129%
- toxicity of the regimen (result in words) ([2]; 100 mg/kg i.p. j 1-9): TOXIQUE
- T/C (%) ([2]; 200 mg/kg i.p. j 1,5,9): 105%
- Volume moyen de la tumeur (cm^3 ± S.E.) ([2]; 200 mg/kg i.p. j 1,5,9, jour 15): 0,37±0,05* cm^3
- Volume moyen de la tumeur (cm^3 ± S.E.) ([2]; 200 mg/kg i.p. j 1,5,9, jour 19): 1,70±0,24* cm^3
- Volume moyen de la tumeur (cm^3 ± S.E.) ([2]; 200 mg/kg i.p. j 1,5,9, jour 22): 2,43±0,31* cm^3
- Volume moyen de la tumeur (cm^3 ± S.E.) [2, 4]: 3,71±0,46 cm^3
- nombre d'animaux vivants/total [2, 4]: 9/10
- toxicity of the regimen (result in words) ([2]; 200 mg/kg i.p. j 1-9): TOXIQUE
- T/C (%) ([2]; 300 mg/kg i.p. j 1,5,9): 94%
- Volume moyen de la tumeur (cm^3 ± S.E.) ([2]; 300 mg/kg i.p. j 1,5,9, jour 19): 0,24±0,14* cm^3
- Volume moyen de la tumeur (cm^3 ± S.E.) ([2]; 300 mg/kg i.p. j 1,5,9, jour 22): 0,45±0,28* cm^3
- Volume moyen de la tumeur (cm^3 ± S.E.) [2, 5]: 2,24±0,31 cm^3
- nombre d'animaux vivants/total [2, 5]: 3/10
- Volume moyen de la tumeur (cm^3 ± S.E.) ([3]; 50 mg/kg i.p. x j 1-9, jour 14): 0,38±0,01 cm^3
- nombre de souris avec tumeur/total ([3]; 50 mg/kg i.p. x j 1-9, jour 14): 4/10
- Volume moyen de la tumeur (cm^3 ± S.E.) ([3]; 50 mg/kg i.p. x j 1-9, jour 21): 2,03±0,17 cm^3
- nombre de souris avec tumeur/total ([3]; 50 mg/kg i.p. x j 1-9, jour 21): 9/9
- Poids corporel (g±S.E.) ([3]; 50 mg/kg i.p. x j 1-9): 20,05±0,60 g
- Poids de la rate (mg±S.E.) ([3]; 50 mg/kg i.p. x j 1-9): 206,8±12,0 mg
- Poids de la tumeur (g±S.E.) ([3]; 50 mg/kg i.p. x j 1-9): 3,4033±0,26 g
- Poids du foie (g±S.E.) ([3]; 50 mg/kg i.p. x j 1-9): 1,6089±0,10 g
- nombre de souris avec tumeur/total ([3]; 100 mg/kg i.p. x j 1-9, jour 14): - (0/10)
- Volume moyen de la tumeur (cm^3 ± S.E.) [3, 6]: 0,92±0,03 cm^3
- nombre de souris avec tumeur/total [3, 6]: 12/12
- Poids corporel (g±S.E.) ([3]; 100 mg/kg i.p. x j 1-9): 20,22±0,37 g
- Poids de la rate (mg±S.E.) ([3]; 100 mg/kg i.p. x j 1-9): 137,9±5,04 mg
- Poids de la tumeur (g±S.E.) ([3]; 100 mg/kg i.p. x j 1-9): 2,1947±0,07 g
- Poids du foie (g±S.E.) ([3]; 100 mg/kg i.p. x j 1-9): 1,1750±0,03 g
- Volume moyen de la tumeur (cm^3 ± S.E.) [3, 7]: 0,41±0,04 cm^3
- nombre de souris avec tumeur/total [3, 7]: 4/10
- Volume moyen de la tumeur (cm^3 ± S.E.) [3, 8]: 2,23±0,16 cm^3
- nombre de souris avec tumeur/total [3, 8]: 10/10
- Poids corporel (g±S.E.) ([3]; 150 mg/kg i.p. x j 1,5,9): 21,55±0,29 g
- Poids de la rate (mg±S.E.) ([3]; 150 mg/kg i.p. x j 1,5,9): 240,7±17,1 mg
- Poids de la tumeur (g±S.E.) ([3]; 150 mg/kg i.p. x j 1,5,9): 3,5869±0,18 g
- Poids du foie (g±S.E.) ([3]; 150 mg/kg i.p. x j 1,5,9): 1,7270±0,10 g
- nombre de souris avec tumeur/total ([3]; 150 mg/kg i.p. x j 1-9, jour 14): - (0/10)
- Volume moyen de la tumeur (cm^3 ± S.E.) [3, 9]: 0,72±0 cm^3
- nombre de souris avec tumeur/total [3, 9]: 1/10
- Poids corporel (g±S.E.) ([3]; 150 mg/kg i.p. x j 1-9): 17,55±0,70 g
- Poids de la rate (mg±S.E.) ([3]; 150 mg/kg i.p. x j 1-9): 103,0±6,02 mg
- Poids de la tumeur (g±S.E.) ([3]; 150 mg/kg i.p. x j 1-9): 1,0795±0,11 g
- Poids du foie (g±S.E.) ([3]; 150 mg/kg i.p. x j 1-9): 1,0190±0,03 g
- Volume moyen de la tumeur (cm^3 ± S.E.) [3, 10]: 0,36±0,04 cm^3
- nombre de souris avec tumeur/total [3, 10]: 2/10
- Volume moyen de la tumeur (cm^3 ± S.E.) [3, 11]: 2,02±0,26 cm^3
- nombre de souris avec tumeur/total [3, 11]: 10/10
- Poids corporel (g±S.E.) ([3]; 200 mg/kg i.p. x j 1,5,9): 21,05±0,39 g
- Poids de la rate (mg±S.E.) ([3]; 200 mg/kg i.p. x j 1,5,9): 208,6± 8,8 mg
- Poids de la tumeur (g±S.E.) ([3]; 200 mg/kg i.p. x j 1,5,9): 3,2003±0,18 g
- Poids du foie (g±S.E.) ([3]; 200 mg/kg i.p. x j 1,5,9): 1,4620±0,08 g
- nombre de souris avec tumeur/total ([3]; 200 mg/kg i.p. x j 1-9, jour 14): - (0/10)
- nombre de souris avec tumeur/total ([3]; 200 mg/kg i.p. x j 1-9, jour 21): - (0/10)
- Poids corporel (g±S.E.) ([3]; 200 mg/kg i.p. x j 1-9): 17,20±0,48 g
- Poids de la rate (mg±S.E.) ([3]; 200 mg/kg i.p. x j 1-9): 117,8±9,9 mg
- Poids de la tumeur (g±S.E.) ([3]; 200 mg/kg i.p. x j 1-9): 0,3819±0,13 g
- Poids du foie (g±S.E.) ([3]; 200 mg/kg i.p. x j 1-9): 1,1088±0,01 g
- Volume moyen de la tumeur (cm^3 ± S.E.) [3, 12]: 0,32 cm^3
- nombre de souris avec tumeur/total [3, 12]: 1/9
- Volume moyen de la tumeur (cm^3 ± S.E.) [3, 13]: 1,02±0,08 cm^3
- nombre de souris avec tumeur/total [3, 13]: 8/9
- Poids corporel (g±S.E.) ([3]; 250 mg/kg i.p. x j 1,5,9): 20,16±0,47 g
- Poids de la rate (mg±S.E.) ([3]; 250 mg/kg i.p. x j 1,5,9): 144,5± 7,3 mg
- Poids de la tumeur (g±S.E.) ([3]; 250 mg/kg i.p. x j 1,5,9): 2,4530±0,18 g
- Poids du foie (g±S.E.) ([3]; 250 mg/kg i.p. x j 1,5,9): 1,2015±0,04 g
- nombre de souris avec tumeur/total ([3]; 300 mg/kg i.p. x j 1,5,9, jour 14): - (0/10)
- Volume moyen de la tumeur (cm^3 ± S.E.) [3, 14]: 0,94±0,09 cm^3
- nombre de souris avec tumeur/total [3, 14]: 9/10
- Poids corporel (g±S.E.) ([3]; 300 mg/kg i.p. x j 1,5,9): 20,20±0,53 g
- Poids de la rate (mg±S.E.) ([3]; 300 mg/kg i.p. x j 1,5,9): 125,6±10,8 mg
- Poids de la tumeur (g±S.E.) ([3]; 300 mg/kg i.p. x j 1,5,9): 2,2664±0,19 g
- Poids du foie (g±S.E.) ([3]; 300 mg/kg i.p. x j 1,5,9): 1,2654±0,06 g
- nombre de souris vivantes/total ([3]; 250 mg/kg i.p. x j 1,5,9): 250 " ( 9/9 )
- nombre de souris vivantes/total ([3]; 300 mg/kg i.p. x j 1,5,9): 300xj 1,5,9 (10/10)
- T/C (%) (LEUCEMIE P388; Tableau 2, inoculation i.p., 100 mg/kg i.p. x 9 (j 1 à 9)): 245%
- T/C (%) (LEUCEMIE P388; Tableau 2, inoculation i.p., 150 mg/kg i.p. x 9 (j 1 à 9)): 135%
- T/C (%) (LEUCEMIE P388; Tableau 2, inoculation i.p., 200 mg/kg i.p. x 9 (j 1 à 9)): 110%
- T/C (%) (LEUCEMIE P388; Tableau 9, 25 mg/kg i.p. x j 1-9): 166%
- T/C (%) (LEUCEMIE P388; Tableau 9, 50 mg/kg i.p. x j 1,5,9): 161%
- T/C (%) (LEUCEMIE P388; Tableau 9, 50 mg/kg i.p. x j 1-9): 176%
- T/C (%) (LEUCEMIE P388; Tableau 9, 100 mg/kg i.p. x j 1): 152%
- T/C (%) (LEUCEMIE P388; Tableau 9, 100 mg/kg i.p. x j 1,5,9): 190%
- T/C (%) (LEUCEMIE P388; Tableau 9, 100 mg/kg i.p. x j 1-9 (9Q1D)): 260%
- T/C (%) (LEUCEMIE P388; Tableau 9, 150 mg/kg i.p. x j 1,5,9): 219%
- T/C (%) (LEUCEMIE P388; Tableau 9, 150 mg/kg i.p. x j 1-9): 195%
- T/C (%) (LEUCEMIE P388; Tableau 9, 200 mg/kg i.p. x j 1): 166%
- T/C (%) (LEUCEMIE P388; Tableau 9, 250 mg/kg i.p. x j 1,5,9 (Q4D)): 285%
- T/C (%) (LEUCEMIE P388; Tableau 9, 300 mg/kg i.p. x j 1): 166%
- T/C (%) (LEUCEMIE P388; Tableau 9, 400 mg/kg i.p. x j 1): 200%
